Test system: benzodiazepine receptors
Experiment: Flunitrazepam Receptor Binding Assay, FBA Test No. 1 (3H-flunitrazepam displacement, calf caudate)
Details: final concentration 1×10^-6 M, lower = more displacement of 3H-flunitrazepam, 1 µM

## CC(c1ccccc1)N1CCn2c1nc1ccc(Cl)cc1c2=O (single isomer, unassigned) [Example 2D]
  Response - % of Control (percent specifically bound compared to control): 15 % of Control

## O=c1c2cc(Cl)ccc2nc2n1CCN2Cc1ccccc1 [Example 2A]
  Response - % of Control (percent specifically bound compared to control): 1 % of Control

## CC1Cn2c(nc3ccc(Cl)cc3c2=O)N1Cc1ccccc1 (stereo not shown) [Example 2B]
  Response - % of Control (percent specifically bound compared to control): 5 % of Control

## O=c1c2cc(Cl)ccc2nc2n1CCN2Cc1ccc(Cl)cc1 [Example 2E, 1-(p-chlorobenzyl)-7-chloro-2,3-dihydro-imidazo[2,1-b]quinazolin-5(1H)-one]
  Response - % of Control (percent specifically bound compared to control): 5 % of Control
